Earlier results in US20240398940A1, “NOVEL LIPID NANOPARTICLES FOR DELIVERY OF NUCLEIC ACIDS” (CureVac SE, priority 2021, published 2024).
Where two headings read alike, the source gives them in different places.

Experiments:
[1] = in vivo

| charge (pH 4) | charge (pH 7) | accumulation in tissue [1] | excretion [1] | Compound |
| --- | --- | --- | --- | --- |
| positive charge | neutral charge |  |  | Cc1c(C)c2c(c(C)c1OC(=O)CCC(=O)OCCC1CCN(CCSSCCN3CCC(CCOC(=O)CCC(=O)Oc4c(C)c(C)c5c(c4C)CCC(C)(CCCC(C)CCCC(C)CCCC(C)C)O5)CC3)CC1)CCC(C)(CCCC(C)CCCC(C)CCCC(C)C)O2 (stereo not shown) [C23, COATSOME ® SS-EC] |
|  |  | no significant accumulation in tissue | rapidly excreted by the kidney | poly(2-methyl-2-oxazoline) [PMOZ] |
